Drawing on PubChem BioAssay AID248 (DTP/NCI, 2004), this text covers T/C for 21 molecules.

This experiment has as its system L1210 leukemia ip in BDF1 mice, survival T/C. The experiment is described as follows: NCI In Vivo Anticancer Drug Screen. Data for tumor model L1210 Leukemia (intraperitoneal) in B6D2F1 (BDF1) mice. As to conditions: endpoint: mean survival time, higher = longer survival. The essentials:
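In this screen, tumor-bearing mice given compound are compared to those given vehicle, and their survival values are reported as a treated-to-control quotient.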

Where [1] appears, read: dose: 100.0 mg/kg/injection, schedule: Q04DX002 (ip), vehicle: other.
Setting [2] is: dose: 200.0 mg/kg/injection, schedule: Q04DX002 (ip), vehicle: other.
[3] abbreviates: dose: 400.0 mg/kg/injection, schedule: Q04DX002 (ip), vehicle: other.
Where [4] appears, read: dose: 100.0 mg/kg/injection, schedule: Q04DX003 (ip), vehicle: saline with Tween-80.
[5] abbreviates: dose: 200.0 mg/kg/injection, schedule: Q04DX003 (ip), vehicle: saline with Tween-80.
Setting [6] is: dose: 100.0 mg/kg/injection, schedule: Q04DX002 (ip), vehicle: saline with Tween-80.
Setting [7] is: dose: 200.0 mg/kg/injection, schedule: Q04DX002 (ip), vehicle: saline with Tween-80.
Where [8] appears, read: dose: 100.0 mg/kg/injection, schedule: Q01DX009 (ip), vehicle: saline with Tween-80.
The mark [9] stands for this setting: dose: 100.0 mg/kg/injection, schedule: Q04DX003 (ip), vehicle: saline.
The mark [10] stands for this setting: dose: 200.0 mg/kg/injection, schedule: Q01DX009 (ip), vehicle: saline with Tween-80.
Setting [11] is: dose: 200.0 mg/kg/injection, schedule: Q04DX003 (ip), vehicle: saline.
Setting [12] is: dose: 100.0 mg/kg/injection, schedule: Q01DX001 (ip), vehicle: saline.
[13] abbreviates: dose: 200.0 mg/kg/injection, schedule: Q01DX001 (ip), vehicle: saline.
[14] abbreviates: dose: 400.0 mg/kg/injection, schedule: Q01DX001 (ip), vehicle: saline.
Setting [15] is: dose: 100.0 mg/kg/injection, schedule: Q01DX001 (ip), vehicle: carboxymethylcellulose (CMC).
[16] abbreviates: dose: 200.0 mg/kg/injection, schedule: Q01DX001 (ip), vehicle: carboxymethylcellulose (CMC).
Setting [17] is: dose: 50.0 mg/kg/injection, schedule: Q01DX009 (ip), vehicle: saline with Tween-80.

Where “and” joins values, the source holds several entries; their conditions need not be identical. Identical values can stand only once. Inconclusive results and toxic doses are left out.

As for `c1ccc(-c2cc[c]([Sn]([c]3ccccc3)([c]3ccccc3)[c]3ccccc3)cc2)cc1`, the T/C was 103 % of control under setting [1], 107 % of control under setting [2] and 96 % of control under setting [3].

Consider `Br/C1=C/CCCCCC1`, for which the T/C (dose: 75.0 mg/kg/injection, schedule: Q04DX003 (ip), vehicle: saline) is 102 % of control and the T/C (dose: 150.0 mg/kg/injection, schedule: Q04DX003 (ip), vehicle: saline) is 96 % of control.

Turning to `CCC(C)C(CN)(CCCCN1CCCCC1)c1cccc2ccccc12` (centres undefined), the T/C was 97 % of control under setting [4] and 90 % of control under setting [5].

As to `CCCCS(=O)(=O)N1CCCC1`, the T/C reads like this: under setting [6], 101 % of control; under setting [7], 101 % of control; (dose: 400.0 mg/kg/injection, schedule: Q04DX002 (ip), vehicle: saline with Tween-80) 101 % of control.

As to `COc1cc(OC)c(/C=C2\N=C(c3ccccc3)OC2=O)c(OC)c1`, the T/C under setting [1] was 91 % of control, the T/C under setting [2] is 102 % of control and the T/C under setting [3] was 88 % of control.

As for `CC(C)c1ccc(N2C(=O)CSC2=S)cc1`, the T/C is, setting by setting: under setting [6], 97 % of control; under setting [7], 87 % of control.

Consider `C=CCN(CC=C)C(=O)C(C)O` (centres undefined), for which the T/C was 103 % of control under setting [4]; 103 % of control under setting [5]; 98 % of control (dose: 400.0 mg/kg/injection, schedule: Q04DX003 (ip), vehicle: saline with Tween-80).

With `Cc1cc(N(C)C)nc(SCc2ccc(Cl)cc2Cl)n1`, the T/C (dose: 200.0 mg/kg/injection, schedule: Q01DX Z (ip), vehicle: methylcellulose (MC)) is 105 % of control.

Take `CCCN=C(N)c1ccc(NC(=O)c2ccc(C(=O)Nc3ccc(C(N)=NCCC)cc3)c(Cl)c2)cc1`: the T/C was 98 % of control (dose: 1.25 mg/kg/injection, schedule: Q01DX Z (ip), vehicle: water); 101 % of control (dose: 2.5 mg/kg/injection, schedule: Q01DX Z (ip), vehicle: water); 155 % of control (dose: 6.5 mg/kg/injection, schedule: Q01DX Z (ip), vehicle: carboxymethylcellulose (CMC)); 121 % of control (dose: 13.0 mg/kg/injection, schedule: Q01DX Z (ip), vehicle: carboxymethylcellulose (CMC)); 104 % of control (dose: 62.0 mg/kg/injection, schedule: Q01DX Z (oral), vehicle: water); 110 % of control (dose: 125.0 mg/kg/injection, schedule: Q01DX Z (oral), vehicle: water). Besides, the T/C runs as follows: (dose: 250.0 mg/kg/injection, schedule: Q01DX Z (oral), vehicle: water) 104 % of control; (dose: 500.0 mg/kg/injection, schedule: Q01DX Z (oral), vehicle: water) 104 % of control.

For the molecule `O=C(O)CCc1ccccc1`, the T/C (dose: 50.0 mg/kg/injection, schedule: Q04DX003 (ip), vehicle: saline) was 98 % of control; the T/C under setting [8] is 92 % of control; the T/C under setting [9] is 104 % of control; the T/C under setting [10] is 95 % of control; the T/C under setting [11] is 95 % of control; the T/C (dose: 400.0 mg/kg/injection, schedule: Q01DX009 (ip), vehicle: saline with Tween-80) is 86 % of control. The T/C (dose: 400.0 mg/kg/injection, schedule: Q04DX003 (ip), vehicle: saline) is 98 % of control.

Consider `CC1C(O)CN1C(C)(C)C` (centres undefined), for which the T/C is 105 % of control under setting [12], 106 % of control under setting [13] and 108 % of control under setting [14].

`C(=Nc1cnc2ccccc2c1)c1ccnc2ccccc12`: the T/C runs as follows: (dose: 50.0 mg/kg/injection, schedule: Q01DX001 (ip), vehicle: carboxymethylcellulose (CMC)) 95 % of control; under setting [15], 104 % of control; under setting [16], 107 % of control; (dose: 400.0 mg/kg/injection, schedule: Q01DX001 (ip), vehicle: carboxymethylcellulose (CMC)) 95 % of control.

For the molecule `COc1ccc(CCc2ccc(OC)cc2)cc1`, the T/C reads like this: (dose: 25.0 mg/kg/injection, schedule: Q04DX002 (ip), vehicle: saline) 106 % of control; (dose: 50.0 mg/kg/injection, schedule: Q04DX002 (ip), vehicle: saline) 117 % of control; (dose: 100.0 mg/kg/injection, schedule: Q04DX002 (ip), vehicle: saline) 109 % of control.

As to `C#CC(=O)C(CC)CCCC` (centres undefined), the T/C is, setting by setting: (dose: 6.25 mg/kg/injection, schedule: Q01DX009 (ip), vehicle: saline with Tween-80) 115 % of control; (dose: 12.5 mg/kg/injection, schedule: Q01DX009 (ip), vehicle: saline with Tween-80) 117 % of control.

For the molecule `CC(C)=N/N=C(/C(=O)c1ccccc1)c1ccccc1`, the T/C is, setting by setting: under setting [12], 109 % of control; under setting [13], 109 % of control; under setting [14], 97 % of control.

Take `CN(C)c1ccc(/C=N/NC(=O)CNC(=O)c2ccc(Cl)c(Cl)c2)cc1`: the T/C reads like this: under setting [17], 86 % of control; under setting [8], 94 % of control; under setting [10], 88 % of control.

`CC1=CC(O)Nc2c(CBr)cccc21` (centres undefined): the T/C was 97 % of control (dose: 25.0 mg/kg/injection, schedule: Q01DX009 (ip), vehicle: saline with Tween-80); 103 % of control under setting [17]; 107 % of control under setting [12]; 101 % of control under setting [9]; 95 % of control under setting [13]; 91 % of control under setting [14].

Consider `Nc1ccc(-c2ccc3ccccc3n2)cc1`, for which the T/C by setting is: (dose: 12.0 mg/kg/injection, schedule: Q01DX009 (ip), vehicle: Klucel (hydroxypropylcellulose) (HPC)) 92 % of control; (dose: 25.0 mg/kg/injection, schedule: Q01DX009 (ip), vehicle: Klucel (hydroxypropylcellulose) (HPC)) 94 % of control; (dose: 100.0 mg/kg/injection, schedule: Q04DX003 (ip), vehicle: Klucel (hydroxypropylcellulose) (HPC)) 112 % of control; (dose: 200.0 mg/kg/injection, schedule: Q04DX003 (ip), vehicle: Klucel (hydroxypropylcellulose) (HPC)) 103 % of control.

`COc1ccc(OC(C)=O)c(C=O)c1`: the T/C under setting [15] was 100 % of control and the T/C under setting [16] was 103 % of control.

Take `S=C1SCN(CCc2ccccc2)CN1CCc1ccccc1`: the T/C reads like this: (dose: 100.0 mg/kg/injection, schedule: Q04DX002 (ip), vehicle: gum acacia) 92 % of control; (dose: 200.0 mg/kg/injection, schedule: Q04DX002 (ip), vehicle: gum acacia) 98 % of control; (dose: 400.0 mg/kg/injection, schedule: Q04DX002 (ip), vehicle: gum acacia) 92 % of control.

Consider `Cc1ncc(CCl)n1Cc1ccccc1`, for which the T/C (dose: 6.25 mg/kg/injection, schedule: Q04DX002 (ip), vehicle: saline) is 95 % of control and 87 % of control; the T/C (dose: 12.5 mg/kg/injection, schedule: Q04DX002 (ip), vehicle: Klucel (hydroxypropylcellulose) (HPC)) is 110 % of control; the T/C (dose: 12.5 mg/kg/injection, schedule: Q04DX002 (ip), vehicle: saline) is 114 % of control and 90 % of control; the T/C (dose: 25.0 mg/kg/injection, schedule: Q01DX009 (ip), vehicle: saline) is 94 % of control and 104 % of control; the T/C (dose: 25.0 mg/kg/injection, schedule: Q04DX002 (ip), vehicle: Klucel (hydroxypropylcellulose) (HPC)) was 95 % of control; the T/C (dose: 50.0 mg/kg/injection, schedule: Q01DX001 (ip), vehicle: saline) was 96 % of control. Also, the T/C (dose: 50.0 mg/kg/injection, schedule: Q01DX009 (ip), vehicle: saline) is 93 % of control and 119 % of control; the T/C (dose: 50.0 mg/kg/injection, schedule: Q04DX002 (ip), vehicle: Klucel (hydroxypropylcellulose) (HPC)) is 100 % of control; the T/C under setting [12] is 97 % of control; the T/C (dose: 100.0 mg/kg/injection, schedule: Q01DX009 (ip), vehicle: saline) is 89 % of control and 90 % of control; the T/C under setting [9] is 90 % of control; the T/C under setting [11] is 93 % of control.
